Legend:
Homo sapiens [1] = species: Homo sapiens; assay: Selectivity index, ratio of inhibition for PI3Kalpha (unknown origin) to inhibition for PI3K p120 gamma (unknown origin) using phosphatidylinositol 4,5-bisphosphate as substrate in presence of ATP incubated for 60 mins by ADP-Glo assay
[2] = Intrinsic clearance in cryopreserved human hepatocytes assessed as per million cells at 0.5 uM by LC-MS/MS analysis; format: ADME, cell-based, Hepatocyte
[3] = target: T1, Phosphatidylinositol 4,5-bisphosphate 3-kinase catalytic subunit gamma isoform (Homo sapiens, UniProt P48736); assay: Inhibition of PI3Kgamma in human THP-1 cells assessed as reduction in Akt phosphorylation at S473 residue incubated for 60 mins measured after 120 mins by alphalisa assay; format: cell-based
Homo sapiens [4] = species: Homo sapiens; assay: Selectivity index, ratio of inhibition for PI3Kdelta (unknown origin) to inhibition for PI3K p120 gamma (unknown origin) using phosphatidylinositol 4,5-bisphosphate as substrate in presence of ATP incubated for 60 mins by ADP-Glo assay
[5] = Intrinsic clearance in rat hepatocytes assessed as per million cells; format: ADME, cell-based, Hepatocyte
[6] = target: T1, Phosphatidylinositol 4,5-bisphosphate 3-kinase catalytic subunit gamma isoform; assay: Inhibition of PI3K p120gamma (unknown origin) using phosphatidylinositol 4,5-bisphosphate as substrate in presence of ATP incubated for 60 mins by ADP-Glo assay
Cytochrome P450 2D6 = Cytochrome P450 2D6 (Homo sapiens, UniProt P10635); assay: Inhibition of CYP2D6 (unknown origin) using diclofenac as substrate measured after 5 to 20 mins in presence of NADPH by LC-MS/MS analysis; format: ADME
Cytochrome P450 3A4 = Cytochrome P450 3A4 (Homo sapiens, UniProt P08684); assay: Inhibition of CYP3A4 (unknown origin) using midazolam as substrate measured after 5 to 20 mins in presence of NADPH by LC-MS/MS analysis; format: ADME
Cytochrome P450 2C9 = Cytochrome P450 2C9 (Homo sapiens, UniProt P11712); assay: Inhibition of CYP2C9 (unknown origin) using diclofenac as substrate measured after 5 to 20 mins in presence of NADPH by LC-MS/MS analysis; format: ADME
Cytochrome P450 2C19 = Cytochrome P450 2C19 (Homo sapiens, UniProt P33261); assay: Inhibition of CYP2C19 (unknown origin) using S-mephenytoin as substrate measured after 5 to 20 mins in presence of NADPH by LC-MS/MS analysis; format: ADME
Cytochrome P450 1A2 = target: T2, Cytochrome P450 1A2 (Homo sapiens, UniProt P05177); assay: Inhibition of CYP1A2 (unknown origin) using phenacetin as substrate measured after 5 to 20 mins in presence of NADPH by LC-MS/MS analysis; format: ADME
T2 sequence (P05177 whole entry): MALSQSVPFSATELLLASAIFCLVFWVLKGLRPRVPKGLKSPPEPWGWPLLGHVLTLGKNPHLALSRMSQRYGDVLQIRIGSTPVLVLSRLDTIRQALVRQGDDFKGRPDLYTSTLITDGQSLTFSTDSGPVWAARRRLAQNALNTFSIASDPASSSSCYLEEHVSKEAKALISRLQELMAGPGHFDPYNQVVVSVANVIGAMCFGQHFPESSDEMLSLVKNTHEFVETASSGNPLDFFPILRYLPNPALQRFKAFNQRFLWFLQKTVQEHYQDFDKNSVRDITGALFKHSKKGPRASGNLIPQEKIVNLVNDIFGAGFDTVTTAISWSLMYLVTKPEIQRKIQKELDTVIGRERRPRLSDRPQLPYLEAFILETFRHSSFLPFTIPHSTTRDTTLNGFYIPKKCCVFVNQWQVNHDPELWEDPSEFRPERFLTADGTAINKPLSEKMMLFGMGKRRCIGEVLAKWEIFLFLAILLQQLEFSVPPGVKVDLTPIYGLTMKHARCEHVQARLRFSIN

[7] = Clearance in Sprague-Dawley rat at 0.25 mg/kg, iv measured upto 8 hrs by LC/MS/MS analysis; format: ADME, organism-based; details: in vivo
[8] = Apparent permeability in human Caco2 cells; format: ADME, cell-based; details: Caco-2
[9] = Efflux ratio of permeability in human Caco2 cells; format: ADME, cell-based; details: Caco-2

T1 sequence (P48736 whole entry, canonical isoform): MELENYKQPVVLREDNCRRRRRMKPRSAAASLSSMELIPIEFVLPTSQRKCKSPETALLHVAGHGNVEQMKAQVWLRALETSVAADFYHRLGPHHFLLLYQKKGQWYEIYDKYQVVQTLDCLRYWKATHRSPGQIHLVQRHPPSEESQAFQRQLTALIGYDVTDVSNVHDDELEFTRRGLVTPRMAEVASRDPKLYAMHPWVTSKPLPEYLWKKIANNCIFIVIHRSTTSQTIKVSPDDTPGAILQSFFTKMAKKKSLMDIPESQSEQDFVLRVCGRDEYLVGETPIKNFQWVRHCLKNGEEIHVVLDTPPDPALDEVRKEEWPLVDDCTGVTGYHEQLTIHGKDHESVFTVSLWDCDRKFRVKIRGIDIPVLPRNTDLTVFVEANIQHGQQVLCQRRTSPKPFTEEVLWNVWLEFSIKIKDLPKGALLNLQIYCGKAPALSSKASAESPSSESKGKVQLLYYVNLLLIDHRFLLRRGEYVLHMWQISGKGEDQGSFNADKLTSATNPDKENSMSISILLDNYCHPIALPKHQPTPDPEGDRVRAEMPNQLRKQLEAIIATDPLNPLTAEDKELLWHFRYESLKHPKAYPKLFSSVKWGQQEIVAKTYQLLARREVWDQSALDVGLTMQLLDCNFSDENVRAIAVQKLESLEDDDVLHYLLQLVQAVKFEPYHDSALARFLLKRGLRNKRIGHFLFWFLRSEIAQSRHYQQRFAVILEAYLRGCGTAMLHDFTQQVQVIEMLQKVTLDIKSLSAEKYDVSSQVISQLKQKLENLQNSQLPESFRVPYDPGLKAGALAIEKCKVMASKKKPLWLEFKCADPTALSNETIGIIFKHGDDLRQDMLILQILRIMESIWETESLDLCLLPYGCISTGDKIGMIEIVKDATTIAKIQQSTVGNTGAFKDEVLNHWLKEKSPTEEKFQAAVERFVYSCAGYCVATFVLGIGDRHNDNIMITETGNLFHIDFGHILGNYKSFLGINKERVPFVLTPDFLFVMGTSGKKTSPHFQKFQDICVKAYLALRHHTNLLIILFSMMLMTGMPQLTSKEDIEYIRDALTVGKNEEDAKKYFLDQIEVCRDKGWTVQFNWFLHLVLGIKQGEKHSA
Cytochrome P450 2C19, sequence (P33261 whole entry): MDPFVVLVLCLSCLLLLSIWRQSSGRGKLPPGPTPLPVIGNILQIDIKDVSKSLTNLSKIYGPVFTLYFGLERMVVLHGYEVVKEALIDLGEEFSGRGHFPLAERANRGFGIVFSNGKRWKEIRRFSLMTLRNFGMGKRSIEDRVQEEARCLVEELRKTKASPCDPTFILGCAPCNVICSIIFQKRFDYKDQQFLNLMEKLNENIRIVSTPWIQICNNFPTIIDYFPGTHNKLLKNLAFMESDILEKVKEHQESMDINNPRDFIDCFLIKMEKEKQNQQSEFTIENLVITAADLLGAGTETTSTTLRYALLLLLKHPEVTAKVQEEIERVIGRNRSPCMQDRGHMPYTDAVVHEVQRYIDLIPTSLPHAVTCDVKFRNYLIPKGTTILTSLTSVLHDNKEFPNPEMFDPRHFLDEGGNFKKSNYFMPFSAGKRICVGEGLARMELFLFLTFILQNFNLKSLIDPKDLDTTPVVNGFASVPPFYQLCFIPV
Cytochrome P450 3A4, sequence (P08684 whole entry): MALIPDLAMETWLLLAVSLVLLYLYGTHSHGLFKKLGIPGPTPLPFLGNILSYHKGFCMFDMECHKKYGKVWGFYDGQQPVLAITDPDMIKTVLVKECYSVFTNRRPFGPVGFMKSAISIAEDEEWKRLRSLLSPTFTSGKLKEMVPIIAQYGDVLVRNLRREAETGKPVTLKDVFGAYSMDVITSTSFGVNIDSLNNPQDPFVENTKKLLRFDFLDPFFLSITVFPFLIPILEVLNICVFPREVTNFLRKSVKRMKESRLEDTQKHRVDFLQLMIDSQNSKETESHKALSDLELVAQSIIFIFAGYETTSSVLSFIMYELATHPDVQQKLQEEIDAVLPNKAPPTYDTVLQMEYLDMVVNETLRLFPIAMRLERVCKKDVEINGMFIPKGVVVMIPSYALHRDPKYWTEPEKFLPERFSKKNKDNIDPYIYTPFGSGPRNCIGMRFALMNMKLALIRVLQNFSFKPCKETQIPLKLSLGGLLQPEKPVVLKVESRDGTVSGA
Cytochrome P450 2C9, sequence (P11712 whole entry): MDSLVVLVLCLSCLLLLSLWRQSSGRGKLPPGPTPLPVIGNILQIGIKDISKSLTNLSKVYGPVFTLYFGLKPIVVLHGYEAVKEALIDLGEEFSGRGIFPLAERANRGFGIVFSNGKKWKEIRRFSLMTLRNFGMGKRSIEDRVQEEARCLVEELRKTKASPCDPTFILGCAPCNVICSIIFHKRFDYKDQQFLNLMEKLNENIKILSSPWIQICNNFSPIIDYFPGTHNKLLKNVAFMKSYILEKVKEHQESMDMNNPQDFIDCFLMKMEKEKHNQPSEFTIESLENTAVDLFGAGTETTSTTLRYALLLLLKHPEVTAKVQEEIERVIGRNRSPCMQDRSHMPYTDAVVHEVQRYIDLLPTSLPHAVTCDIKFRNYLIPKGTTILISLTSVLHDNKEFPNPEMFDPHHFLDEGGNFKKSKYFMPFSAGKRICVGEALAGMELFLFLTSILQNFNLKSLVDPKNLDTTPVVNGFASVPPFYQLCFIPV
Cytochrome P450 2D6, sequence (P10635 whole entry): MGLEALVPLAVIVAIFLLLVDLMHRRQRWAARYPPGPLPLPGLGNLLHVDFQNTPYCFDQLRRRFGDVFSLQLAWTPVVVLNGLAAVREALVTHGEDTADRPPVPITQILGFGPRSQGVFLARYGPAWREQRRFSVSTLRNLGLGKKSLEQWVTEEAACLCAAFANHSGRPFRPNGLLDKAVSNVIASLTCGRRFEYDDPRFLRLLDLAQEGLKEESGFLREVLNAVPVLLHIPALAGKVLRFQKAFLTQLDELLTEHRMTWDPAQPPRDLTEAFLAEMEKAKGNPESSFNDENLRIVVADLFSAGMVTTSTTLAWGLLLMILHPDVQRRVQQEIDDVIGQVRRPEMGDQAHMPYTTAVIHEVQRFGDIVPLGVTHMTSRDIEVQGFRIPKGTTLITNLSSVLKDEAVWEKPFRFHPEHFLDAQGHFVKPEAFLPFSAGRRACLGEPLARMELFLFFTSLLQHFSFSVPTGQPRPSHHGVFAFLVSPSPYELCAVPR

SMILES	Selectivity ratio (Homo sapiens [1])	CLH [2]	IC50 [3]	Selectivity ratio (Homo sapiens [4])	CLH [5]	IC50 [6]	IC50 (Cytochrome P450 2D6)	IC50 (Cytochrome P450 3A4)	IC50 (Cytochrome P450 2C9)	IC50 (Cytochrome P450 2C19)	IC50 (Cytochrome P450 1A2)	clearance [7]	Papp [8]	efflux ratio [9]
Cc1cc(-c2c[nH]c3ncc(-c4cc5c(c(C(F)(F)F)c4)C(=O)N([C@@H](C)C4CC4)C5)cc23)ccc1C(=O)O	918	< 1.2 µL/min/1e6 cells	0.04 µM	335	2 µL/min/1e6 cells	0.0012 µM								
Cc1cc(-c2cnc3[nH]cc(-c4ccncc4)c3c2)cc2c1C(=O)N([C@@H](C)C1CC1)C2	379		0.22 µM	290		0.0034 µM	2 µM	0.3 µM	0.3 µM	< 0.1 µM	0.7 µM			
Cc1cc(-c2cnc3[nH]cc(-c4ccc(C(=O)O)cc4)c3c2)cc2c1C(=O)N([C@@H](C)C1CC1)C2	259	24 µL/min/1e6 cells	0.14 µM	136	54 µL/min/1e6 cells	0.0025 µM						11 L/h/kg	10.7 nm/s	46.6
Cc1cc(-c2c[nH]c3ncc(-c4cc5c(c(C(F)(F)F)c4)C(=O)N([C@@H](C)C4CC4)C5)cc23)cc(C)c1C(=O)O	257	1.8 µL/min/1e6 cells	0.03 µM	84	< 1.2 µL/min/1e6 cells	0.0028 µM						28 L/h/kg		
Cc1cc(-c2c[nH]c3ncc(-c4cc(C)c5c(c4)CN([C@@H](C)C4CC4)C5=O)cc23)cc(C)c1C(=O)O	1520	20 µL/min/1e6 cells	0.09 µM	1210	46 µL/min/1e6 cells	0.0022 µM						6.9 L/h/kg		
Cc1cc(-c2cnc3[nH]cc(-c4ccc(CC(=O)O)cc4)c3c2)cc2c1C(=O)N([C@@H](C)C1CC1)C2	878	6.9 µL/min/1e6 cells	0.16 µM	872	17 µL/min/1e6 cells	0.0026 µM								
C[C@@H](C1CC1)N1Cc2cc(-c3cnc4[nH]cc(-c5ccc(C6(C(=O)O)CC6)cc5)c4c3)cc(C(F)(F)F)c2C1=O	742	2.6 µL/min/1e6 cells	0.11 µM	620	18 µL/min/1e6 cells	0.0036 µM								
Cc1cc(-c2cnc3[nH]cc(-c4ccc(C(C)(C)C(=O)O)cc4)c3c2)cc2c1C(=O)N([C@@H](C)C1CC1)C2	835	2.3 µL/min/1e6 cells	0.18 µM	968	27 µL/min/1e6 cells	0.0021 µM								
Cc1cc(-c2c[nH]c3ncc(-c4cc(C)c5c(c4)CN([C@@H](C)C4CC4)C5=O)cc23)ccc1C(=O)O	433	19 µL/min/1e6 cells	0.078 µM	505	51 µL/min/1e6 cells	0.0028 µM								
Cc1cc(-c2cnc3[nH]cc(-c4ccc(C5(C(=O)O)CC5)cc4)c3c2)cc2c1C(=O)N([C@@H](C)C1CC1)C2	863	1.7 µL/min/1e6 cells	0.15 µM	1400	16 µL/min/1e6 cells	0.0033 µM						1.8 L/h/kg		
Cc1cc(-c2c[nH]c3ncc(-c4cc(C)c5c(c4)CN([C@@H](C)C4CC4)C5=O)cc23)ccc1CC(=O)O	539	8 µL/min/1e6 cells	0.15 µM	397	23 µL/min/1e6 cells	0.0033 µM						1.8 L/h/kg		
COc1cc(-c2cnc3[nH]cc(-c4cnn(C)c4)c3c2)cc2c1C(=O)N([C@@H](C)C1CC1)C2	> 1670		0.17 µM	365		0.0043 µM								
Cc1cc(-c2cnc3[nH]cc(-c4ccc(C(=O)O)c(C5CC5)c4)c3c2)cc2c1C(=O)N([C@@H](C)C1CC1)C2	585		0.04 µM	494		0.0016 µM								
Cc1cc(-c2cnc3[nH]cc(-c4cnn(C)c4)c3c2)cc2c1C(=O)N([C@@H](C)C1CC1)C2	898		0.2 µM	379		0.00326 µM								
